In the supplement of paper PMC13380429:

What was measured:
[1] = tested on: Caco-2; assay: drug sensitivity score (DSS) for viability; higher = more toxic; extreme values may be limits of the assay; settings: 72 h
[2] = tested on: HepG2; assay: as above; settings: 72 h
[3] = tested on: Calu-3; assay: as above; settings: 72 h
[4] = tested on: Vero E6; assay: as above; settings: 72 h
[5] = tested on: U2OS; assay: as above; settings: 72 h
[6] = tested on: A549-ACE2 infected with SARS-CoV-2; assay: SARS-CoV-2 infection rate relative to DMSO; higher = more infection; settings: 24 h
[7] = tested on: Caco-2; assay: cell viability relative to DMSO; higher = less toxic; settings: 72 h
[8] = tested on: HepG2; assay: as above; settings: 72 h
[9] = tested on: Calu-3; assay: as above; settings: 72 h
[10] = tested on: Vero E6; assay: as above; settings: 72 h
[11] = tested on: U2OS; assay: as above; settings: 72 h
[12] = tested on: A549-ACE2 infected with SARS-CoV-2; assay: morphology score (similarity to uninfected cells); higher = more like uninfected cells; settings: 24 h
[13] = tested on: A549-ACE2 infected with SARS-CoV-2; assay: cell count relative to DMSO; higher = less toxic; settings: 24 h
[14] = tested on: A549-ACE2; assay: phospholipidosis EC50; higher = less potent phospholipidosis inducer
[15] = tested on: Caco-2; assay: relative viability EC50 (midpoint between 100% and the lowest measured viability); higher = less toxic; settings: 72 h
[16] = tested on: HepG2; assay: as above; settings: 72 h
[17] = tested on: A549-ACE2; assay: drug-induced phospholipidosis relative to tamoxifen; higher = more phospholipidosis
[18] = tested on: Calu-3; assay: relative viability EC50 (midpoint between 100% and the lowest measured viability); higher = less toxic; settings: 72 h
[19] = tested on: Vero E6; assay: as above; settings: 72 h
[20] = tested on: U2OS; assay: as above; settings: 72 h

CN1CCN(C2CCN(C(=O)Nc3cc(Oc4ccc(NC(=O)C5(C(=O)Nc6ccc(F)cc6)CC5)c(F)c4)ccn3)CC2)CC1 [golvatinib]
Settings | drug sensitivity score | relative viability EC50 [µM]
[1] | 5 | –
[2] | 9 | –
[3] | 1.4 | –
[4] | 3.4 | –
[5] | 1.6 | –
[15] | – | 1.66
[16] | – | 1.63

Settings | SARS-CoV-2 infection rate [%] | cell count [%] | cell viability [%] | morphology score | phospholipidosis EC50 [µM]
[6], 0.1 µM | 107 | – | – | – | –
[6], 0.3 µM | 104 | – | – | – | –
[6], 1 µM | 95 | – | – | – | –
[6], 3 µM | 50 | – | – | – | –
[7], 1 nM | – | – | 102 | – | –
[7], 10 nM | – | – | 89.1 | – | –
[7], 100 nM | – | – | 95 | – | –
[7], 1000 nM | – | – | 87.9 | – | –
[7], 10000 nM | – | – | 44.2 | – | –
[8], 1 nM | – | – | 97.8 | – | –
[8], 10 nM | – | – | 95.5 | – | –
[8], 100 nM | – | – | 102 | – | –
[8], 1000 nM | – | – | 77.6 | – | –
[8], 10000 nM | – | – | 1.4 | – | –
[9], 1 nM | – | – | 92.4 | – | –
[9], 10 nM | – | – | 105 | – | –
[9], 100 nM | – | – | 97.1 | – | –
[9], 1000 nM | – | – | 106 | – | –
[9], 10000 nM | – | – | 63.4 | – | –
[10], 1 nM | – | – | 95.3 | – | –
[10], 10 nM | – | – | 97.5 | – | –
[10], 100 nM | – | – | 95 | – | –
[10], 1000 nM | – | – | 91.3 | – | –
[10], 10000 nM | – | – | 59.6 | – | –
[11], 1 nM | – | – | 96.7 | – | –
[11], 10 nM | – | – | 102 | – | –
[11], 100 nM | – | – | 97.6 | – | –
[11], 1000 nM | – | – | 104 | – | –
[11], 10000 nM | – | – | 61.2 | – | –
[12], 0.1 µM | – | – | – | -0.16 | –
[12], 0.3 µM | – | – | – | -0.14 | –
[12], 1 µM | – | – | – | 0.12 | –
[12], 3 µM | – | – | – | 0.64 | –
[13], 0.1 µM | – | 94 | – | – | –
[13], 0.3 µM | – | 101 | – | – | –
[13], 1 µM | – | 103 | – | – | –
[13], 3 µM | – | 110 | – | – | –
[14], 24 h | – | – | – | – | 4.22
[14], 48 h | – | – | – | – | 9.68
[14], 72 h | – | – | – | – | 11.3

drug-induced phospholipidosis [%], [17]
Settings | 0.3 µM | 0.833333 µM | 3.33333 µM | 6.66667 µM | 10 µM | 30 µM
24 h | 1.8 | 1.61 | 20.9 | 69 | 79.8 | 76.4
48 h | 3.53 | 3.1 | 11.1 | 42.2 | 75.9 | –
72 h | 5.78 | 3.08 | 10.8 | 36.2 | 67.2 | –

COc1ccc2c(C)nc(Nc3nc(C)c(C)c(O)n3)nc2c1 [madrasin]
Settings | drug sensitivity score | relative viability EC50 [µM]
[1] | 0 | –
[2] | 0 | –
[3] | 0 | –
[4] | 0 | –
[5] | 0 | –
[15] | – | > 10
[16] | – | > 10
[18] | – | > 10
[19] | – | > 10
[20] | – | > 10

Settings | SARS-CoV-2 infection rate, [6] [%] | cell count, [13] [%] | cell viability, [7] [%] | cell viability, [8] [%] | cell viability, [9] [%] | cell viability, [10] [%] | cell viability, [11] [%] | morphology score, [12]
1 nM | – | – | 105 | 89.9 | 94.7 | 82.8 | 98.6 | –
10 nM | – | – | 99.2 | 95.4 | 84 | 99.1 | 98.1 | –
100 nM | – | – | 119 | 90.9 | 97 | 91 | 102 | –
0.3 µM | 90 | 102 | – | – | – | – | – | 0.29
1000 nM | – | – | 101 | 92.7 | 108 | 98.1 | 98.8 | –
3 µM | 88 | 105 | – | – | – | – | – | 0.36
10 µM | 96 | 102 | – | – | – | – | – | 0.21
10000 nM | – | – | 98.3 | 93.5 | 94.6 | 111 | 97 | –
30 µM | 1 | 95 | – | – | – | – | – | 0.75

drug-induced phospholipidosis [%], [17]
Settings | 0.3 µM | 0.833333 µM | 3.33333 µM | 6.66667 µM | 10 µM | 30 µM
24 h | 2.49 | -0.05 | -3.35 | -1.32 | 1.34 | 56
48 h | 3.81 | -2.33 | -1.09 | 0.46 | 1.75 | –
72 h | 0.061 | -7.49 | 0.0944 | -0.243 | 1.1 | –
